The test system of the assay is EAE mice. As to the kind of experiment: Clinical scoring of MOG-induced EAE in mice. The assay is classed as in vivo, C57BL/6N female mice. As to conditions: 10 mg/kg p.o., day 1 to day 28, positive control, FIG. 10. As to the method:
C57BL/6N female mice, 7-9 weeks old, were used. Animals were housed and maintained in compliance with the regulations.
On Day 0, mice were grouped randomly by body weight, and then injected subcutaneously with 200 μg of myelin oligodendrocyte glycoprotein (MOG) peptide in complete Freund's adjuvant (CFA) into the right and left flank, 100 μl per site. Pertussis toxin (PTX) injected by i.p at 0 and 48 hours after MOG immunization. Compounds were given from day 1 to day 28 according to Table 2. The animals (n=10) were scored daily for clinical signs of EAE. At the end of the experiments, spinal cords were used for HE staining (n=5), and analysis of TNF-α, IL-17, IFN-γ by Elisa kit.
The animals were scored daily for clinical signs of EAE according to the Clinical scoring rubric for EAE (Table 3).

Structures are written as SMILES.

Consider `C[C@]12C=CC(=O)C=C1CC[C@@H]1[C@@H]2C(=O)C[C@@]2(C)[C@H]1CC[C@]2(O)C(=O)CO` [prednisone, Prednisone], for which the “clinical signs of EAE (clinical score)” value was “significantly reduced clinical signs of EAE from day 13th”.

The values above are taken from US20220401573A1, “COMPOSITION AND METHOD FOR TREATMENT OF MULTIPLE SCLEROSIS” (Wuhan Vast Conduct Science Foundation CO., LTD., priority 2019, published 2022).
